In patent US20010025105A1, “Certain substituted 1-aryl-3-piperazine-1'-yl propanones” (Molecular Geriatarics Corporation, priority 1997, published 2001) one finds IC50 and melting point data, which are given here for 24 compounds.

Structures can show the parent of a compound that is named as a salt.

One data set concerns TG3 immunoreactivity in OKA treated MSN1a cells. The data set is described as follows: MSN1a cell culture model, ELISA with TG3 antibody, okadaic acid treated cells. The data set is classed as cell-based, human. Conditions: 1 μM OKA, 2 hrs at 37° C., read-out: IC50 for inhibition of TG3 immunoreactivity in OKA treated MSN1a cells. As for the experimental part: This assay can thus be used to determine whether a drug is capable of preventing or intervening in AD by attenuating the production of abnormally phosphorylated paired helical filament epitopes associated with AD. To determine whether a drug is capable of preventing or intervening in AD activity, the MSN1a cells containing tau and associated proteins are treated with OKA capable of greatly increasing immunoreactivity of the MSN1a cells with AD specific monoclonal antibodies. Then, either prior to or concomitantly with OKA treatment, a compound of the present invention is added to the culture. If the compound prevents the induction of the AD epitopes in the MSN1a cells treated with OKA, then it is said to have anti-AD activity. If the AD-specific antibodies are highly reactive with the neuroblastoma cells following OKA treatment in the presence of compound, then the compound is said to be ineffectual against AD.
The MSN1a human neuroblastoma line was subcloned from a population of MSN cells obtained from the laboratory of Dr. Peter Davies (Albert Einstein College of Medicine, New York, N.Y.). Cells were grown and maintained in flasks in RPMI 1640 medium, supplemented with 15% fetal calf serum, 100 U/ml penicillin, 100 U/ml Streptomycin, 0.5 ug/ml fungizone under 7.5% CO2 at 37° C.
Stock solutions of drugs were prepared by dissolving the anhydrous powders to final concentrations of either 10 or 20 mM in 50% aqueous or 100% dimethyl sulfoxide (DMSO), respectively. Working solutions of drugs were prepared by dilution of the stock solutions with Kreb's Ringer in Hepes buffer (KRH) (128 mM NaCl, 5 mM KCl, 2.5 mM CaCl2 1.2 mM MgSO4, 1 mM Na2HPO4, 10 mM dextrose, 20 mM Hepes, pH 7.4). OKA is maintained as a 1 mM stock solution in DMSO prior to dilution to 4 μM in KRH.
MSN cells grown in 225 cm^2 flasks are removed from the incubator, their medium decanted and replaced with 50 ml pre-warmed KRH. The cells are harvested by scraping prior to sedimentation at 1000 rpm for 5 min. The supernatants are discarded and the cell pellets are resuspended, the cells counted and diluted to a density of 2×10^4 cells/[…]. The cells are then plated in a 96 well plate at 50 μl/well and 25 μl of 4 μM OKA and 25 μl of drug are then added to the appropriate wells; the entire 96 well plate is then incubated for 2 hrs at 37° C. Depending on the dilution of drug added, this yields individual wells containing 1 μM OKA, 0-64 μM drug and 2×10^4 cells in 0.26% DMSO in KRH. The incubation is terminated by the addition of 20 μl of 6X extraction buffer and immediate freezing at −80° C. for at least one hr. The 6X extraction buffer contains: 25 mM Tris-HCl, pH 7.6, 150 mM NaCl, 5 mM EDTA, 24 mM β-glycerol phosphate, 10 μg/ml APMSF (4-amidinophenylmethane-sulfonyl flouride), and 2.5 μg/ml each of leupeptin, aprotinin, and pepstatin. The plates are thawed in a 37° C. water bath and 20 μl of cell lysate is added to a replica well in an ELISA plate that already contains 80 μl of coating buffer (15 mM Na2CO3 and 35 mM NaHCO3, pH 9.6). The plates are allowed to coat overnight at 4° C. The plates are washed four times with deionized water and then blocked for 30 min at 37° C. with 200 μl/well pre-warmed 1% bovine serum albumin in 10 mM Tris-HCl, pH 7.4, 150 mM NaCl, 3 mM NaN3 (BSA-TBS). After the blocking solution is removed, 100 μl/well of an appropriate dilution of pre-warmed primary antibody (eg., TG3 or PHF-1) in BSA-TBS is added and incubated at 37° C. for 30 min. Incubation is terninated by washing four times in deionized water at which time 100 μl of an appropriate dilution of pre-warmed secondary antibody (conjugated to alkaline phosphatase) in BSA-TBS is added to each well in the ELISA plate. Incubation is performed for 30 min at 37° C. followed by washing 4 times with deionized water. […] of prewarmed chromogenic substrate (1 mg/mnl p-nitrophenyl phosphate in 10% diethanolamine, 3 mM NaN3, 0.5 mM MgCl2, pH 9.8) is added and the plate incubated for 30 min at 37° C. […]
On the technique in general: In an ELISA, binding on a coated surface is turned into a signal by an enzyme label.
One may read the IC50 as the midpoint of a concentration-inhibition curve. Take `O=C(CCN1CCN(Cc2ccccc2F)CC1)c1ccc([N+](=O)[O-])cc1` [Example 32, 1-(p-Nitrophenyl)-3-[4′-(o-fluorobenzyl)-1′-piperazinyl]-1-propanone dihydrochloride]: the IC50 amounted to 6.2 µM.

In the case of “1-(1-Nitrophenyl)-3-[4′-(2″,3″-difluorobenzoyl)-1′-piperazinyl]-1-propanone dihydrochloride [Example 63]”, the IC50 worked out at 7.3 µM.

Staying with this data set, now noted: Homo sapiens, 1 μM OKA, 2 hrs at 37° C., read-out: IC50 for inhibition of TG3 immunoreactivity in OKA treated MSN1a cells.
With `CS(=O)(=O)Nc1ccc(C(=O)CCN2CCN(Cc3ccccc3)CC2)cc1` [Example 26, 1-[-p-(Methanesulfonamido)phenyl]-3-(4′-benzyl-1′-piperazinyl)-1-propanone dihydrochloride], the IC50 was 14.7 µM. Regarding `O=C(CCN1CCN(Cc2ccccc2)CC1)c1ccc2c(c1)OCCO2` [Example 19, 1-(2″,3″-Dihydro-1″,4″-benzodioxan-6″-yl)-3-(4′-benzyl-1′-piperazinyl)-1-propanone dihydrochloride], the IC50 came out at 15.6 µM.

Test system in the next data set: not given
Assay: not given
Details: not given
Usually melting point stands for the temperature of the solid-liquid transition. `O=C(CCN1CCN(Cc2ccccc2)CC1)c1ccc2c(c1)-c1ccccc1-2` [Example 58, 1-(Biphenylen-2″-yl)-3-(4′-benzyl-1′-piperazinyl)-1-propanone] registered a melting point of 133 to 134 °C. In turn, `O=C(CCN1CCN(C(=O)c2ccccc2F)CC1)c1ccc([N+](=O)[O-])cc1` (as salt: hydrochloride) [Example 54, 1-(p-Nitrophenyl)-3-(4′-o-fluorobenzoyl-1′-piperazinyl)-1-propanone dihydrochloride] yielded a melting point of 217 to 218 °C.

As for `O=C(CCN1CCN(C(=O)c2c(F)cccc2F)CC1)c1ccc(Br)s1` (as salt: hydrochloride) [Example 62, 1-(5′″-Bromo-2′″-thienyl)-3-[4′-(2″,6″-difluorobenzoyl)-1′-piperazinyl]-1-propanone hydrochloride], the melting point lay within 225 to 226 °C. Regarding `Cc1c(C(=O)CCN2CCN(Cc3ccccc3)CC2)sc2ccc(Cl)cc12` (as salt: hydrochloride) [Example 82, 1-(5″-Chloro-3″-methylbenzo[b]-2″-thienyl)-3-(4′-benzyl-1′-piperazinyl)-1-propanone dihydrochloride], the melting point is 247 °C (dec.). With `Cl.Cl.O=C1c2ccccc2SCC1CN1CCN(Cc2ccccc2)CC1` (stereo not drawn), the melting point was > 250 °C (dec.). Take `O=C(CCN1CCN(C(=O)c2ccccc2F)CC1)c1cccs1` (as salt: hydrochloride) [Example 70, 1-(2″-Thienyl)-3-[4′-(o-fluorobenzoyl)-1′-piperazinyl]-1-propanone hydrochloride]: the melting point lay within 183 to 184 °C.

Turning to `O=C(CCN1CCN(Cc2ccccc2)CC1)c1cc(C(F)(F)F)cc(C(F)(F)F)c1` (as salt: hydrochloride) [Example 9, 1-[3″,5″-Bis-(trifluoromethyl)phenyl]-3-(4′-benzyl-1′-piperazinyl)-1-propanone dihydrochloride], the melting point is 255 °C. Still for that read-out and setting: for `O=C(CCN1CCN(Cc2ccccc2)CC1)c1ccc(-c2ccccc2)cc1` (as salt: hydrochloride) [Example 22, 1-p-Biphenyl-3-(4′-benzyl-1′-piperazinyl)-1-propanone dihydrochloride] the value was 225 °C (dec.); for `O=C(CCN1CCN(C(=O)c2c(F)cccc2F)CC1)c1ccc([N+](=O)[O-])cc1` (as salt: hydrochloride) [Example 40, 1-(p-Nitrophenyl)-3-[4′-(2″,6″-difluorobenzoyl)-1′-piperazinyl]-1-propanone hydrochloride], 225 to 227 °C. Regarding `O=C(CCN1CCC(C(=O)c2ccc(F)cc2)CC1)c1csc([N+](=O)[O-])c1` (as salt: hydrochloride) [Example 98, 1-(2″-Nitro-4″-thienyl)-3-(4′-p-fluorobenzoyl-1′-piperidinyl)-1-propanone hydrochloride], the melting point is 205 to 206 °C. `O=C(CCN1CCN(Cc2ccccc2)CC1)c1ccc(I)cc1` (as salt: hydrochloride) [Example 1, 1-(piodophenyl)-3-(4′-benzyl-1′-piperazinyl)-1-propanonedihydrochloride]: the melting point was 224 °C (dec.).

Turning to `O=C(CCN1CCN(Cc2ccccc2)CC1)c1ccc2c(c1)Cc1ccccc1-2` (as salt: hydrochloride) [Example 28, 1-(Fluoren-2″-yl)-3-(4′-benzyl-1′-piperazinyl)-1-propanone dihydrochloride], the melting point was 225 °C (dec.).

On to `Cc1ccc(C(=O)CCN2CCN(Cc3ccccc3)CC2)o1` (as salt: hydrochloride) [Example 67, 1-(5″-Methyl-2″-furanyl)-3-(4′-benzyl-1′-piperazinyl)-1-propanone hydrochloride], for which the melting point is 213 °C (dec.). On to `O=C(CCN1CCN(Cc2ccccc2)CC1)c1ccc(Sc2ccccc2)cc1` (as salt: hydrochloride) [Example 69, 1-p-Phenylthiophenyl-3-(4′-benzyl-1′-piperazinyl)-3-propanone dihydrochlonde], for which the melting point was 210 °C (dec.). Take `O=C(CCN1CCN(Cc2ccccc2)CC1)c1ccc(-c2ccccc2)s1` (as salt: hydrochloride) [Example 56, 1-(5″-Phenyl-2″-thienyl)-3-(4′-benzyl-1′-piperazinyl)-1-propanone dihydrochloride]: the melting point lay in the range of 224 to 247 °C. For `O=C(CCN1CCN(Cc2ccccc2)CC1)c1ccc2c(c1)CCCC2` (as salt: hydrochloride) [Example 20, 1-(1″,2″,3″,4″-Tetrahydronaphth-6″-yl)-3-(4′-benzyl-1′-piperazinyl)-1-propanone dihydrochloride], the melting point is 200 °C (dec.). Consider `O=C(CCN1CCN(C(=O)c2sc3ccccc3c2Cl)CC1)c1ccc(Br)s1` (as salt: hydrochloride) [Example 86, 1-(5″-Bromo-2″-thienyl)-3-[4′-(3′″-chlorobenzo[b]-2′″-thienoyl)-1′-piperazinyl]-1-propanone dihydrochloride], for which the melting point was 188 to 189 °C. As to `Cn1cc(C(=O)CCN2CCN(Cc3ccccc3)CC2)cn1` (as salt: hydrochloride) [Example 24, 1-(1″-Methyl-1″-H-pyrazol-4″-yl)-3-(4′-benzyl-1′-piperazinyl)-1-propanone dihydrochloride], the melting point is 221 °C (dec.). Same read-out and setting: the value for `O=C(CCN1CCC(Cc2ccccc2)CC1)c1ccc(Br)s1` (as salt: hydrochloride) [Example 99, 1-(5″-Bromo-2″-thienyl)-3-(4′-benzyl-1′-piperidinyl)-1-propanone hydrochloride] was 205 to 208 °C; that for `O=C(CCN1CCN(Cc2ccccc2)CC1)c1cccn1S(=O)(=O)c1ccccc1` (as salt: hydrochloride) [Example 91, 1-(N-Phenylsulfonylpyrrol-2-yl)-3-(4′-benzyl-1′-piperazinyl)-1-propanone dihydrochloride] was 215 °C (dec.).
